Results taken from PMC12677652, “Procyanidin B3 and Its Derivatives Alleviate Neuronal Injury by Targeting G3BP1 for Ischemic Stroke Therapy” (Advanced Science, 2025).
Like-named read-outs stand apart in the source and are kept apart here.

Key:
SG in HT22 cells = test: Immunofluorescence staining of G3BP1 to detect SG level in HT22 cells under OGD/R; format: cell-based; settings: for ratio of SG‐positive cells: 100 µM; for SG levels: after 6 h of OGD, 24 h treatment
Protocol: Immunofluorescence analysis of the stress granule (SG) core component G3BP1 was utilized to investigate the SG formation in HT22 cells and the cortex. HT22 cells were treated with 4% paraformaldehyde for 15 min. Then the fixed brain tissue slices and HT22 cells were permeabilized for 5 min using 1% Triton X‐100 (Sigma‐Aldrich, USA) dissolved in PBS and blocked with a PBS solution containing 10% goat serum for 1 h, followed by incubation with anti‐G3BP1 antibody (catalog no. 66486‐1‐Ig, Proteintech, China) at 4 °C overnight. After being washed with PBS 3 times for 5 min each, samples were incubated with secondary antibody (Alexa Fluor 568 Goat anti‐mouse IgG, Invitrogen, USA) in the dark for 2 h at room temperature. The nucleus was stained with DAPI. Fluorescent pictures were obtained with a fluorescence microscope (Carl Zeiss, Germany).

[1] = Brain and plasma concentrations after MCAO/reperfusion (BBB assessment); format: in vivo, mice; settings: C57BL/6, mouse, ip, 0.5 h after administration, 48 mg kg^−1 i.p., after 1.5 h of MCAO followed by reperfusion; for Kp at 0.5 h: brain / plasma, read-out: CBrain/Cplasma
Protocol: After 1.5 h of MCAO followed by reperfusion, each of 1 and 6c was administered at a dose of 48 mg kg^−1 intraperitoneally to mice, and the brain and plasma concentrations of each compound were measured at 0.5 h after administration. The ratios of brain to plasma concentrations of 1 and 6c were 0.37 and 0.57, respectively, confirming that the BBB permeability of compounds benefited from higher lipophilicity (Table 2 ). The decrease in 6c concentration in vivo may be due to changes in metabolic routes. Tertiary carbon atoms and terminal carbon atoms are easily metabolized through oxidative pathways,^[ [55] ^] so the introduction of isopropyl groups leads to the production of more metabolites, resulting in a decrease in the area under curve (AUC). The metabolites of oligomeric proanthocyanidins and their analogues are quite complex. Although there are a large number of metabolites, most of them have a flavan‐3‐ol core structure and contain many phenolic hydroxyl groups.^[ [56] ^] As mentioned above, phenolic hydroxyl groups are important active functional groups to exert neuroprotective effects, so it can be inferred that metabolites of 6c also have similar activity to 6c. In future work, radiolabeled pharmacokinetic studies and metabolite studies are needed to further elucidate the metabolism of the preferred compound.^[ [57] ^] Pharmacokinetic analyses were performed using a LC‐40D XS HPLC system (Shimadzu, Japan) coupled with a Sciex Triple Quad 5500 mass spectrometer (AB SCIEX, USA). Tested compounds PB3 and 6c were administered by i.p. injection (48 mg kg^−1, formulation solvent: normal saline). Blood samples were drawn from the retro‐orbital vein at 0.083, 0.25, 0.5, 1, 2, 4, 8, and 24 h post‐injection with EDTA dipotassium salt as an anticoagulant. Subsequently, the plasma fractions were collected in Eppendorf tubes and centrifuged at 4000 g for 5 min at 4 °C and stored at −80 °C for analysis. Brain tissue was mixed with four‐fold normal saline for homogenization (10 s per time with a 10 s interval for 3–5 times). Then, the mixture was centrifuged at 4000 g for 5 min at 4 °C, and the supernatant was stored at −80 °C for analysis. For sample preparation, the desired serial concentrations of working solutions were achieved by diluting a stock solution of analyte with 50% methanol in water solution. 2 µL of working solutions were added to 10 µL of the blank C57BL/6 mouse plasma/brain homogenate to achieve calibration standards of 10–10 000 ng mL^−1 (10, 20, 100, 200, 1000, 2000, 4000, 10 000 ng mL^−1) in a total volume of 12 µL. Three quality control samples at 20 ng mL^−1, 1600 ng mL^−1, and 8000 ng mL^−1 for plasma were prepared independently of those used for the calibration curves. These QC samples were prepared on the day of analysis in the same way as calibration standards.

[2] = Pharmacokinetic study in mice, i.p. injection; format: in vivo; settings: C57BL/6, mouse, ip, 48 mg kg^−1 i.p., plasma, mean ± S.D., n = 3
Protocol: Pharmacokinetic analyses were performed using a LC‐40D XS HPLC system (Shimadzu, Japan) coupled with a Sciex Triple Quad 5500 mass spectrometer (AB SCIEX, USA). Tested compounds PB3 and 6c were administered by i.p. injection (48 mg kg^−1, formulation solvent: normal saline). Blood samples were drawn from the retro‐orbital vein at 0.083, 0.25, 0.5, 1, 2, 4, 8, and 24 h post‐injection with EDTA dipotassium salt as an anticoagulant. Subsequently, the plasma fractions were collected in Eppendorf tubes and centrifuged at 4000 g for 5 min at 4 °C and stored at −80 °C for analysis. Brain tissue was mixed with four‐fold normal saline for homogenization (10 s per time with a 10 s interval for 3–5 times). Then, the mixture was centrifuged at 4000 g for 5 min at 4 °C, and the supernatant was stored at −80 °C for analysis. For sample preparation, the desired serial concentrations of working solutions were achieved by diluting a stock solution of analyte with 50% methanol in water solution. 2 µL of working solutions were added to 10 µL of the blank C57BL/6 mouse plasma/brain homogenate to achieve calibration standards of 10–10 000 ng mL^−1 (10, 20, 100, 200, 1000, 2000, 4000, 10 000 ng mL^−1) in a total volume of 12 µL. Three quality control samples at 20 ng mL^−1, 1600 ng mL^−1, and 8000 ng mL^−1 for plasma were prepared independently of those used for the calibration curves. These QC samples were prepared on the day of analysis in the same way as calibration standards.

[3] = molecular target: T1, recombinant human G3BP1 protein (Homo sapiens, UniProt Q13283); test: SPR analysis of binding to G3BP1 (Biacore T200, CM5 chip); settings: 1:1 binding model, running buffer PBS
T1 construct: purchased Hubei Ipodix Biotechnology Co., Ltd. (China)
T1 sequence (Q13283 whole entry): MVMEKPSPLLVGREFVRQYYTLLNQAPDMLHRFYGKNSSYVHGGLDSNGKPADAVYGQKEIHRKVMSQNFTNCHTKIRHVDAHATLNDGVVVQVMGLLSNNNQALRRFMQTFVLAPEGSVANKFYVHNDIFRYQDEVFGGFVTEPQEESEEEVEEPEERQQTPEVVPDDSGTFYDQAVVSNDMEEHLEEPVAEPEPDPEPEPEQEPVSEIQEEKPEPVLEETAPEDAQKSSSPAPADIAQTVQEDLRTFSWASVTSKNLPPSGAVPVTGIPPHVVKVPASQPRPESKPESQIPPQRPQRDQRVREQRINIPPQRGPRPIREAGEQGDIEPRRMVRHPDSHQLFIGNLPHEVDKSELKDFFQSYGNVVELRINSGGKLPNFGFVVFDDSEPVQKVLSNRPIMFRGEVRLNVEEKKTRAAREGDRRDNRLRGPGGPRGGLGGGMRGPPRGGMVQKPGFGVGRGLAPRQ
Protocol: The SPR analyses were carried out using a Biacore T200 instrument (GE Healthcare, USA) with the Series Sensor Chip CM5 (GE Healthcare, USA). The recombinant human G3BP1 protein was purchased from Hubei Ipodix Biotechnology Co., Ltd. (China). The protein was immobilized on the chip using an amine coupling kit (GE Healthcare, USA). The blank channel served as the negative control. The binding experiments were performed at a flow rate of 30 µL min^−1. For the measurement of the kinetic parameters of PB3 and 6c, gradient dilutions of PB3 and 6c were injected into the immobilized protein. The running buffer was PBS. All biosensor data were processed and analyzed with Biacore T200 Evaluation software version 3.2 (GE Healthcare, USA) and fitted by a 1:1 binding model.

| Kp at 0.5 h [1] | concentration at 0.5 h ([1]; brain, read-out: CBrain) [ng/g] | concentration at 0.5 h ([1]; plasma, read-out: Cplasma) [ng/mL] | AUC(0-inf) [2] [ng·h/mL] | AUC(0-t) [2] [ng·h/mL] | Cmax [2] [ng/mL] | MRT inf [2] [h] | half-life [2] [h] | Kd [3] [nM] | SMILES | ratio of SG‐positive cells (SG in HT22 cells; 1 h after administration) | ratio of SG‐positive cells (SG in HT22 cells; after 24 h of reoxygenation) | SG levels (SG in HT22 cells) |
| --- | --- | --- | --- | --- | --- | --- | --- | --- | --- | --- | --- | --- |
| 0.37 | 4790 ± 1610 | 13000 ± 757 | 22300 ± 1970 | 22200 ± 1940 | 30400 ± 1790 | 1.42 ± 0.06 | 4.43 ± 0.34 | 44 | Oc1cc(O)c2c(c1)O[C@H](c1ccc(O)c(O)c1)[C@@H](O)[C@@H]2c1c(O)cc(O)c2c1O[C@H](c1ccc(O)c(O)c1)[C@@H](O)C2 [Compound 1, procyanidin B3] | did not change significantly | significantly increased | enhance SG levels in a dose‐dependent manner |
| 0.57 | 2810 ± 489 | 4960 ± 1590 | 10400 ± 1280 | 10200 ± 1250 | 25200 ± 2500 | 0.76 ± 0.03 | 2.01 ± 0.26 | 58 | CC(C)c1c(O)cc(O)c2c1O[C@H](c1ccc(O)c(O)c1)[C@@H](O)[C@@H]2c1c(O)cc(O)c2c1O[C@H](c1ccc(O)c(O)c1)[C@@H](O)C2 [Compound 6c, 8‐Isopropyl‐(+)‐Catechin‐(4α,8)‐(+)‐Catechin] |  |  | mediate SG upregulation |
